Key:
[1] = tested on: Monocotyledonous and dicotyledonous test plants; assay: Example B1 herbicidal action, application pre-emergence (Table B1b); format: in vivo; details: 250 g/ha, evaluated after 4 weeks
Experimental: (§1) Monocotyledonous and dicotyledonous test plants were sown in seed trays in standard soil. Immediately after sowing (pre-emergence) or after 8 to 9 days cultivation (post-emergence), the test compounds were applied by spraying in the form of an aqueous solution derived from the formulation of the technical active ingredient in 0.6 ml acetone and 45 ml formulation solution containing 10.6% Emulsogen EL (CAS RN 61791-12-6), 42.2% N-methylpyrrolidone, 42.2% dipropylene glycol monomethyl ether (CAS RN 34590-94-8) and 0.2% X-77 (CAS RN 11097-66-8). The test plants were then grown in a greenhouse under optimum conditions. After a test duration of 3 weeks (post-emergence) or 4 weeks (pre-emergence), the test was evaluated (10=total damage to plant, 0=no damage to plant).

[2] = tested on: Monocotyledonous and dicotyledonous test plants; assay: Example B1 herbicidal action, application post-emergence (Table B1a); format: in vivo; details: 250 g/ha, evaluated after 3 weeks, scale 0-10
Experimental: as §1

SMILES	herbicidal action (damage rating 0-10), Amaranthus [1]	herbicidal action (damage rating 0-10), Digitaria [1]	herbicidal action (damage rating 0-10), Panicum [1]	herbicidal action (damage rating 0-10), Setaria [1]	herbicidal action (damage rating 0-10), Sida [1]	herbicidal damage rating, Abutilon [2]	herbicidal damage rating, Amaranthus [2]	herbicidal damage rating, Digitaria [2]	herbicidal damage rating, Panicum [2]	herbicidal damage rating, Setaria [2]	herbicidal damage rating, Sida [2]
CC1(C)CC(S(=O)(=O)C(F)(F)c2ccccc2[S+]([O-])C(F)(F)F)=NO1 (racemic) [1.69]	5	10	10	10	4	4	3	8	5	7	5
COC(=O)c1ccc(C(F)(F)S(=O)(=O)C2=NOC(C)(C)C2)c(F)c1 [1.119]						3	5	3	7	7	4
CCOC(=O)c1ccc(C(F)(Cl)S(=O)(=O)C2=NOC(C)(C)C2)c(F)c1 (stereo not drawn) [1.128]						2	5	4	7	3	0
COc1ccccc1C(F)(Cl)S(=O)(=O)C1=NOC(C)(C)C1 (stereo not drawn) [1.142]						0	0	8	7	5	3
CC1(C)CC(S(=O)(=O)C(F)(Cl)c2ccccc2-c2ccccc2)=NO1 (stereo not drawn) [1.149]						4	4	5	5	3	5
Cn1nc(C(F)(F)F)c(C(F)(F)S(=O)(=O)C2=NOC(C)(C)C2)c1OCC(F)F [2.21]	10	10	10	10	8						
CC(=O)OC(C)=C(c1c(C(F)(F)F)nn(C)c1OCC(F)(F)F)S(=O)(=O)C1=NOC(C)(C)C1 [2.32]	7	4	7	4	0						
Cc1cc(C(F)(Cl)S(=O)(=O)C2=NOC(C)(C)C2)no1 (stereo not drawn) [4.01]	8	8	8	8	8						
Cc1cc(C(F)S(=O)(=O)C2=NOC(C)(C)C2)no1 (stereo not drawn) [4.02]	10	8	10	7	0						
Cc1cc(C(F)(F)S(=O)(=O)C2=NOC(C)(C)C2)no1 [4.03]	9	10		10	7						
COCCC(c1c(F)cccc1F)S(=O)(=O)C1=NOC(C)(C)C1 (stereo not drawn) [Compound No. 1.03]						0	9	6	9		5
CC1(C)CC(S(=O)(=O)C(CC=C(F)F)c2c(F)cccc2F)=NO1 (stereo not drawn) [Compound No. 1.04]	0	7	5	2	0						
CC1(C)CC(S(=O)(=O)C(C(=O)C2CC2)c2c(F)cccc2F)=NO1 (stereo not drawn) [Compound No. 1.54]	0	8	8	8	0						
CC1(C)CC(S(=O)(=O)C(C(=O)C(F)F)c2c(F)cccc2F)=NO1 (stereo not drawn) [Compound No. 1.57]	9	8	10	8	6						
C=C(OC(C)=O)C(Cl)(c1c(F)cccc1F)S(=O)(=O)C1=NOC(C)(C)C1 (stereo not drawn) [Compound No. 1.58]	5	8	9	7	3						
CC1(C)CC(S(=O)(=O)C(C(=O)CCl)c2c(F)cccc2F)=NO1 (stereo not drawn) [Compound No. 1.60]	7	9	10	9	0						
CC(=O)O/C(C)=C(/c1c(F)cccc1F)S(=O)(=O)C1=NOC(C)(C)C1 [Compound No. 1.98, acetic acid 2-(2,6-difluoro-phenyl)-2-(5,5-dimethyl-4,5-dihydroisoxazole-3-sulfonyl)-1-methyl-vinyl ester]	7	8	9	9	4						
COc1c(C(F)(F)S(=O)(=O)C2=NOC(C)(C)C2)c(C(F)(F)F)nn1C [Compound No. 2.23, 3-[difluoro-(5-methoxy-1-methyl-3-trifluoromethyl-1H-pyrazol-4-yl)-methanesulfonyl]-5,5-dimethyl-4,5-dihydroisoxazole]	8	7	8	9	3						
Cc1nn(C)c(OCC(F)(F)F)c1C(F)S(=O)(=O)C1=NOC(C)(C)C1 (stereo not drawn) [Compound No. 2.24]	10	10		10	5						
Cn1nc(C(F)(F)F)c(C([S+]([O-])C2=NOC(C)(C)C2)C(F)(F)F)c1OCC(F)(F)F (stereo not drawn) [Compound No. 2.35, 5,5-dimethyl-3-{2,2,2-trifluoro-1-[1-methyl-5-(2,2,2-trifluoro-ethoxy)-3-trifluoromethyl-1H-pyrazol-4-yl]-ethanesulfinyl}-4,5-dihydro-isoxazole]	10	10	9	5	0						
Cc1nsc(C#N)c1C(F)S(=O)(=O)C1=NOC(C)(C)C1 (stereo not drawn) [Compound No. 3.01, 4-[(5,5-dimethyl-4,5-dihydroisoxazole-3-sulfonyl)-fluoromethyl]-3-methyl-isothiazole-5-carbonitrile]	7	8	10	7	0						
Cc1nsc(C#N)c1C(F)(F)S(=O)(=O)C1=NOC(C)(C)C1 [Compound No. 3.02, 4-[(5,5-dimethyl-4,5-dihydroisoxazole-3-sulfonyl)-difluoro-methyl]-3-methyl-isothiazole-5-carbonitrile]	7	10	10	10	0						
Cc1noc(C)c1C(Cl)S(=O)(=O)C1=NOC(C)(C)C1 (stereo not drawn) [Compound No. 3.03]	7	9	10	10	0						
Cc1noc(C)c1C(Cl)(Cl)S(=O)(=O)C1=NOC(C)(C)C1 [Compound No. 3.04]	3	9	10	9	0						
COc1cc(C(Cl)S(=O)(=O)C2=NOC(C)(C)C2)on1 (stereo not drawn) [Compound No. 5.01, 5-[chloro-(5,5-dimethyl-4,5-dihydroisoxazole-3-sulfonyl)-methyl]-3-methoxy-isoxazole]	0	8		8	2						

Reference: patent US8680290B2, “Isoxazoline derivatives and their use as herbicides” (Syngenta Limited, priority 2004, dated 2014)
